# Assay results published in patent US7875587B2, “Peptide analogues of GIP for treatment of diabetes, insulin resistance and obesity” (UUTECH Limited, priority 2004, dated 2011).
# No end group written: not given here.
# How the values were obtained:
# Assay type in all cases: cell-based
# human GIP receptor [1] = target: T1, human GIP receptor (Homo sapiens, UniProt P48546); experiment: Intracellular cyclic AMP production in GIP-receptor transfected CHL fibroblasts
# T1 construct: expressed in transfected cells; host or cells: Chinese hamster lung (CHL) fibroblasts, stably transfected
# T1 sequence (P48546 22-466): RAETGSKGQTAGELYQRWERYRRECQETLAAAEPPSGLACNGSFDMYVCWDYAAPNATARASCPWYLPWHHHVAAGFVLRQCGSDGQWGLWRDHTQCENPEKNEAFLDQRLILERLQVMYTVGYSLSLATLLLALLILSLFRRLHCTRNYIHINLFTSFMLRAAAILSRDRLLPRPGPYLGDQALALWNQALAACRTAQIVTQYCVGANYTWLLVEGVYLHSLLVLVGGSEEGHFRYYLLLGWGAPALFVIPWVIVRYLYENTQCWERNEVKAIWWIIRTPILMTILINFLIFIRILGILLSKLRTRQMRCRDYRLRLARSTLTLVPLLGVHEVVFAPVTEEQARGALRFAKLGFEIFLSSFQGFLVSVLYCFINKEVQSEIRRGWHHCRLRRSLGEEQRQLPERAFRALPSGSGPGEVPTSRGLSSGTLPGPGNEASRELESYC
# Description: In vitro biological activity. […] In brief, CHL cells were seeded into 12-well plates (Nünc, Roskilde, Denmark) at a density of 10^5 cells per well and allowed to grow for 48 hours before being loaded with tritiated adenine (2 μCi; TRK311; Amersham, Buckinghamshire, UK). The cells were then incubated at 37° C. for 6 hours in 1 ml DMEM supplemented with 0.5% (w/v) BSA and subsequently washed twice with HBS buffer (pH 7.4). […] The medium was subsequently removed and the cells lysed with 1 ml of 5% TCA containing 0.1 mmol/l unlabelled cyclic AMP and 0.1 mmol/l unlabelled ATP.
# human GIP receptor [2] = target: T1, human GIP receptor; experiment: GIP-stimulated cyclic AMP generation in GIP receptor transfected CHL cells (antagonism); conditions: in the presence of native GIP (10^-7 M)
# Description: Tissue culture. Chinese hamster lung (CHL) fibroblast cells stably transfected with the human GIP receptor were cultured in DMEM tissue culture medium containing 10% (v/v) foetal bovine serum, 1% (v/v) antibiotics (100 U/ml penicillin, 0.1 mg/ml streptomycin). BRIN-BD11 cells were cultured using RPMI-1640 tissue culture medium containing 10% (v/v) foetal bovine serum, 1% (v/v) antibiotics (100 U/ml penicillin, 0.1 mg/ml streptomycin). Cells were maintained in sterile tissue culture flasks (Corning Glass Works, Sunderland, UK) at 37° C. in an atmosphere of 5% CO2 and 95% air using an LEEC incubator (Laboratory Technical Engineering, Nottingham, UK).
# Acute studies of cyclic AMP generation. GIP receptor transfected CHL cells were seeded into 12-well plates (Nunc, Roskilde, Denmark) at a density of 1.0×10^5 cells per well. The cells were then allowed to grow for 48 hours before being loaded with tritiated adenine (2 μCi; TRK311, Amersham, Buckinghamshire, UK) and incubated at 37° C. for 6 hours in 1 ml DMEM, supplemented with 0.5% (w/v) […]. The cells were then washed twice with HBS buffer (130 mM NaCl, 20 mM HEPES, 0.9 mM NaHPO4, 0.8 mM MgSO4, 5.4 mM KCl, 1.8 mM CaCl2, 25 mM glucose, 25 μM phenol red, pH 7.4). […]
# BRIN-BD11 cells = experiment: GIP-stimulated insulin release from BRIN-BD11 cells (antagonism); conditions: 5.6 mM glucose, native GIP 10^-7 M
# Description: Tissue culture. […] Cells were maintained in sterile tissue culture flasks (Corning Glass Works, Sunderland, UK) at 37° C. in an atmosphere of 5% CO2 and 95% air using an LEEC incubator (Laboratory Technical Engineering, Nottingham, UK). Acute studies of insulin release. Insulin release from BRIN-BD11 cells was determined using cell monolayers ([…]. et al., 1996, Diabetes 45:1132-1140). Cells were harvested with the aid of trypsin/EDTA (Gibco), seeded into 24-multiwell plates (Nunc, Roskilde, Denmark) at a density of 1.0×10^5 cells per well, and allowed to attach overnight at 37° C.
Compound,EC50 (human GIP receptor [1]),inhibition of GIP-stimulated cyclic AMP production (human GIP receptor [2]),inhibition of GIP-stimulated insulin secretion (BRIN-BD11 cells)
CCCCCCCCCCCCCCCC(=O)NCCCC[C@H](NC(=O)[C@H](Cc1c[nH]c2ccccc12)NC(=O)[C@H](CC(=O)O)NC(=O)[C@H](CC(N)=O)NC(=O)[C@H](CCCCN)NC(=O)[C@H](CCCCN)NC(=O)CNC(=O)[C@H](CCCCN)NC(=O)[C@H](CCC(N)=O)NC(=O)[C@H](C)NC(=O)[C@H](CC(C)C)NC(=O)[C@H](CC(C)C)NC(=O)[C@H](Cc1c[nH]c2ccccc12)NC(=O)[C@H](CC(N)=O)NC(=O)[C@@H](NC(=O)[C@H](Cc1ccccc1)NC(=O)[C@H](CC(=O)O)NC(=O)[C@H](CCC(N)=O)NC(=O)[C@H](CCC(N)=O)NC(=O)[C@H](Cc1c[nH]cn1)NC(=O)[C@@H](NC(=O)[C@H](CCCCN)NC(=O)[C@H](CC(=O)O)NC(=O)[C@H](CCSC)NC(=O)[C@H](C)NC(=O)[C@@H](NC(=O)[C@H](CO)NC(=O)[C@H](Cc1ccc(O)cc1)NC(=O)[C@H](CC(=O)O)NC(=O)[C@H](CO)NC(=O)[C@@H](NC(=O)[C@H](Cc1ccccc1)NC(=O)[C@@H](NC(=O)CNC(=O)[C@H](CCC(=O)O)NC(=O)[C@H](C)NC(=O)[C@H](Cc1ccc(O)cc1)NC(C)=O)[C@@H](C)O)[C@@H](C)CC)[C@@H](C)CC)[C@@H](C)CC)C(C)C)C(=O)N[C@@H](Cc1c[nH]cn1)C(=O)N[C@@H](CC(N)=O)C(=O)N[C@H](C(=O)N[C@H](C(=O)N[C@@H](CCC(N)=O)C(=O)O)[C@@H](C)O)[C@@H](C)CC [N-AcGIP(LysPAL^37)],13 nM,–,–
YAPGTFISDYSIAMDKIHQQDFVNWLLAQKGKKNDWKHNITQ [(Pro^3)GIP],–,inhibited in dose-dependent fashion,inhibited in dose-dependent fashion
